Source: article PMC9865501, “Design and Synthesis of Scopoletin Sulfonate Derivatives as Potential Insecticidal Agents” (Molecules, 2023)
Converted amounts (≈) assume the structure as drawn. Like-named read-outs stand apart in the source and are kept apart here.

Key:
AChE = molecular target: T1, AChE (Electrophorus electricus, UniProt O42275); test: In vitro AChE inhibition (ELISA kit); assay type: biochemical, electric eels
T1 construct: purchased Sigma–Aldrich Chemie GmbH (Buchs, Switzerland)
T1 sequence (O42275 24-633): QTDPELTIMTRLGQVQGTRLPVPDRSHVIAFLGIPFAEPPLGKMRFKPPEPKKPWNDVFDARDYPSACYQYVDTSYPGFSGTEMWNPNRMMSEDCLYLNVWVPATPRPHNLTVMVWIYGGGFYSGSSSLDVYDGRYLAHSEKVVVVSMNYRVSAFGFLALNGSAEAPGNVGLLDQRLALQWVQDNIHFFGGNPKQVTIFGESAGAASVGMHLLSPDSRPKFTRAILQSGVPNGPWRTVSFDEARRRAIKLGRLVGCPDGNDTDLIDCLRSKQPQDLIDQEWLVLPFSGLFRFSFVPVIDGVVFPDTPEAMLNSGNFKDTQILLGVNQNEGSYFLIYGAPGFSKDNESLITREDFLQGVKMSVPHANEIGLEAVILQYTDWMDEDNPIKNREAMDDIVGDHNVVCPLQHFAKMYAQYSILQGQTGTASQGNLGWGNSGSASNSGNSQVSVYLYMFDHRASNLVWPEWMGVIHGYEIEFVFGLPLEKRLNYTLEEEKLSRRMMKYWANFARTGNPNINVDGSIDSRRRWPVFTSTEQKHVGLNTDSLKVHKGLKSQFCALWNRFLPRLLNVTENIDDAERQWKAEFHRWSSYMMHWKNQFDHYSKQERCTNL
Protocol: The effects of the title compounds on the in vitro AChE activity were evaluated using ELISA technology. AChE derived from electric eels was purchased from Sigma–Aldrich Chemie GmbH (Buchs, Switzerland). Briefly, the AChE was preincubated with different concentrations (500, 250, 125, 62.5, 31.25, 15.625, and 7.8125 μg/mL) of the compounds in PBS solution. Then, the AChE activities after incubation were measured using the corresponding ELISA kit according to the manufacturer’s instructions (Jiancheng, Nanjing, China). The detection was performed using a multifunctional microplate reader (SpectraMax® M2e, Thermo Scientific, Waltham, MA, USA).

[1] = Toxicity to brine shrimp Artemia; assay type: in vivo, Artemia salina; settings: Artemia salina (brine shrimp), in vivo, other: immersion in test solution
Protocol: (§1) The toxicity of the title compounds to the brine shrimp A. salina was evaluated according to the reported method. […] Subsequently, approximately 50 hatched (10 h instar) brine shrimp were transferred into each pore of a 24-well plate filled with the test solutions. Finally, the brine shrimp were reared in an illumination incubator (28 ± 1 °C, 12 h light and 12 h dark alternatively) for 24 h. DMSO—1% Tween 20 was used as a blank control. Each treatment was conducted in triplicate. The dead insects were recorded under a stereoscope, and the corrected mortalities of A. salina treated with the compounds were calculated.

T. cinnabarinus = test: Acaricidal activity against T. cinnabarinus (leaf spray on broad bean, 72 h); assay type: in vivo, Tetranychus cinnabarinus; settings: for LC50: Tetranychus cinnabarinus; for acaricidal toxicity relative to compound 5: compared with compound 5
Protocol: An acaricidal activity assay of the test compounds against mites was conducted according to procedures outlined in the literature. […] The stock solution was then diluted to a series of working concentrations with 1% Tween 80 to obtain the test solutions. Subsequently, the leaves of two-leaf-stage broad beans were inoculated with 150–200 female adult T. cinnabarinus mites and reared in a greenhouse (26 ± 1 °C, 75–80% RH, 16 h light and 8 h dark alternatively) for 8 h. The test solution of the compound was then evenly sprayed on these leaves, which were then cultivated in the greenhouse for 72 h. In the blank control group, Tween 80 (1%) was used instead of the treatment solution. Cyetpyrafen (CAS NO. 1253429-01-4) was used as a positive control. Each treatment was repeated three times. The dead insects were recorded under a stereoscope, and the corrected mortalities of mites treated with the compounds were calculated.

A. salina = test: Toxicity to brine shrimp Artemia; assay type: in vivo, Artemia salina
Protocol: as §1

[2] = read-out: Lethal activity to Artemia LC50
[3] = 12 h, read-out: Lethal activity to Artemia LC50
[4] = 72 h, Table S1, read-out: Acaricidal activity LC50
[5] = 72 h, main text and Figure 5, read-out: LC50 against T. cinnabarinus

Compound	IC50 (AChE)	LC50 at 6 h [1, 2]	LC50 at 12 h [1, 3]	LC50 (T. cinnabarinus; [4])	LC50 at 12 h ([1]; abstract (equals the 12 h value), read-out: LC50 against A. salina)	LC50 (T. cinnabarinus; [5])	acaricidal toxicity relative to compound 5 (T. cinnabarinus)	AChE inhibition IC50 (AChE)	Lethal activity to Artemia LC50 (A. salina; 6 h)	Lethal activity to Artemia LC50 (A. salina; 12 h)	LC50 against T. cinnabarinus (T. cinnabarinus; 72 h, main text and Figure 5)
COc1cc2ccc(=O)oc2cc1O [Compound 4, 7-hydroxy-6-methoxy-2H-chromen-2-one]	551 µM	27.2 µg/mL (≈ 142 µM)	14.2 µg/mL (≈ 73.9 µM)	144 µg/mL (≈ 749 µM)	–	–	–	–	–	–	–
COc1cc2ccc(=O)oc2cc1OS(=O)(=O)c1ccccc1 [Compound 4a]	431 µM	47 µg/mL (≈ 141 µM)	29.1 µg/mL (≈ 87.6 µM)	448 µg/mL (≈ 1350 µM)	–	–	–	–	–	–	–
COc1ccc(S(=O)(=O)Oc2cc3oc(=O)ccc3cc2OC)cc1 [Compound 4b]	304 µM	38.6 µg/mL (≈ 107 µM)	18.2 µg/mL (≈ 50.2 µM)	209 µg/mL (≈ 577 µM)	–	–	–	–	–	–	–
COc1cc2ccc(=O)oc2cc1OS(=O)(=O)c1ccc(F)cc1 [Compound 4c]	362 µM	91.5 µg/mL (≈ 261 µM)	56.3 µg/mL (≈ 161 µM)	318 µg/mL (≈ 908 µM)	–	–	–	–	–	–	–
COc1cc2ccc(=O)oc2cc1OS(=O)(=O)c1ccc(Cl)cc1 [Compound 4d]	222 µM	33.6 µg/mL (≈ 91.6 µM)	16 µg/mL (≈ 43.6 µM)	529 µg/mL (≈ 1440 µM)	–	–	–	–	–	–	–
COc1cc2ccc(=O)oc2cc1OS(=O)(=O)c1ccc(Br)cc1 [Compound 4e]	343 µM	157 µg/mL (≈ 382 µM)	89.8 µg/mL (≈ 218 µM)	636 µg/mL (≈ 1550 µM)	–	–	–	–	–	–	–
COc1cc2ccc(=O)oc2cc1OS(=O)(=O)c1ccc(C(F)(F)F)cc1 [Compound 4f]	420 µM	109 µg/mL (≈ 272 µM)	75.6 µg/mL (≈ 189 µM)	441 µg/mL (≈ 1100 µM)	–	–	–	–	–	–	–
COc1cc2ccc(=O)oc2cc1OS(=O)(=O)c1ccc([N+](=O)[O-])cc1 [Compound 4g]	353 µM	46.7 µg/mL (≈ 124 µM)	25.6 µg/mL (≈ 67.8 µM)	183 µg/mL (≈ 485 µM)	–	–	–	–	–	–	–
COc1cc2ccc(=O)oc2cc1OS(=O)(=O)c1cc(Cl)c(Cl)cc1Cl [Compound 4h]	421 µM	131 µg/mL (≈ 301 µM)	125 µg/mL (≈ 287 µM)	832 µg/mL (≈ 1910 µM)	–	–	–	–	–	–	–
COc1cc2ccc(=O)oc2cc1OS(=O)(=O)c1cccs1 [Compound 4i]	432 µM	76.5 µg/mL (≈ 226 µM)	45.1 µg/mL (≈ 133 µM)	489 µg/mL (≈ 1450 µM)	–	–	–	–	–	–	–
COc1cc2ccc(=O)oc2cc1OS(=O)(=O)c1ccc2ccccc2c1 [Compound 4j]	148 µM	13.6 µg/mL (≈ 35.6 µM)	–	–	9.36 µg/mL (≈ 24.5 µM)	93 µg/mL (≈ 243 µM)	–	–	–	–	–
COc1cc2cc(-c3ccc(F)cc3)c(=O)oc2cc1OS(=O)(=O)c1ccccc1 [Compound 5a]	95.2 µM	95.8 µg/mL (≈ 225 µM)	55.8 µg/mL (≈ 131 µM)	–	–	57 µg/mL (≈ 134 µM)	approximately 2 times	–	–	–	–
COc1ccc(S(=O)(=O)Oc2cc3oc(=O)c(-c4ccc(F)cc4)cc3cc2OC)cc1 [Compound 5b]	336 µM	94.5 µg/mL (≈ 207 µM)	36.2 µg/mL (≈ 79.3 µM)	338 µg/mL (≈ 741 µM)	–	–	–	–	–	–	–
COc1cc2cc(-c3ccc(F)cc3)c(=O)oc2cc1OS(=O)(=O)c1ccc(F)cc1 [Compound 5c]	192 µM	94.7 µg/mL (≈ 213 µM)	48.6 µg/mL (≈ 109 µM)	94 µg/mL (≈ 212 µM)	–	–	–	–	–	–	–
COc1cc2cc(-c3ccc(F)cc3)c(=O)oc2cc1OS(=O)(=O)c1ccc(Cl)cc1 [Compound 5d]	149 µM	72.8 µg/mL (≈ 158 µM)	33.7 µg/mL (≈ 73.1 µM)	99 µg/mL (≈ 215 µM)	–	–	–	–	–	–	–
COc1cc2cc(-c3ccc(F)cc3)c(=O)oc2cc1OS(=O)(=O)c1ccc(Br)cc1 [Compound 5e]	141 µM	114 µg/mL (≈ 226 µM)	79.5 µg/mL (≈ 157 µM)	80 µg/mL (≈ 158 µM)	–	–	–	–	–	–	–
COc1cc2cc(-c3ccc(F)cc3)c(=O)oc2cc1OS(=O)(=O)c1ccc(C(F)(F)F)cc1 [Compound 5f]	242 µM	71.5 µg/mL (≈ 145 µM)	39.9 µg/mL (≈ 80.7 µM)	104 µg/mL (≈ 210 µM)	–	–	–	–	–	–	–
COc1cc2cc(-c3ccc(F)cc3)c(=O)oc2cc1OS(=O)(=O)c1ccc([N+](=O)[O-])cc1 [Compound 5g]	261 µM	86.6 µg/mL (≈ 184 µM)	53.6 µg/mL (≈ 114 µM)	68 µg/mL (≈ 144 µM)	–	–	approximately 2 times	–	–	–	–
COc1cc2cc(-c3ccc(F)cc3)c(=O)oc2cc1OS(=O)(=O)c1cc(Cl)c(Cl)cc1Cl [Compound 5h]	198 µM	106 µg/mL (≈ 200 µM)	57.6 µg/mL (≈ 109 µM)	96 µg/mL (≈ 181 µM)	–	–	–	–	–	–	–
COc1cc2cc(-c3ccc(F)cc3)c(=O)oc2cc1OS(=O)(=O)c1cccs1 [Compound 5i]	255 µM	99.8 µg/mL (≈ 231 µM)	56.7 µg/mL (≈ 131 µM)	73 µg/mL (≈ 169 µM)	–	–	approximately 2 times	–	–	–	–
COc1cc2cc(-c3ccc(F)cc3)c(=O)oc2cc1OS(=O)(=O)c1ccc2ccccc2c1 [Compound 5j]	115 µM	77.9 µg/mL (≈ 163 µM)	29.7 µg/mL (≈ 62.3 µM)	–	–	20 µg/mL (≈ 42 µM)	~5 times	–	–	–	–
COc1cc2cc(C(C)=O)c(=O)oc2cc1O [Compound 6, 3-acetyl-7-hydroxy-6-methoxy-2H-chromen-2-one]	395 µM	56.5 µg/mL (≈ 241 µM)	35.6 µg/mL (≈ 152 µM)	81 µg/mL (≈ 346 µM)	–	81 to 116 µg/mL (≈ 346 to 495 µM)	–	–	–	–	–
COc1cc2cc(C(C)=O)c(=O)oc2cc1OS(=O)(=O)c1ccc(Cl)cc1 [Compound 6d]	355 µM	45.5 µg/mL (≈ 111 µM)	27.9 µg/mL (≈ 68.2 µM)	159 µg/mL (≈ 389 µM)	–	–	–	–	–	–	–
COc1cc2cc(C(C)=O)c(=O)oc2cc1OS(=O)(=O)c1cc(Cl)c(Cl)cc1Cl [Compound 6h]	275 µM	48.5 µg/mL (≈ 102 µM)	33.9 µg/mL (≈ 71 µM)	107 µg/mL (≈ 224 µM)	–	–	–	–	–	–	–
COc1cc2cc(C(=O)Nc3ccc(Br)cc3)c(=O)oc2cc1O [Compound 7, 3-(4-bromoaniline formyl)-7-hydroxy-6-methoxy-2H-chromen-2-one]	197 µM	52.3 µg/mL (≈ 134 µM)	32.3 µg/mL (≈ 82.8 µM)	82 µg/mL (≈ 210 µM)	–	81 to 116 µg/mL (≈ 208 to 297 µM)	–	–	–	–	–
COc1cc2cc(C(=O)Nc3ccc(Br)cc3)c(=O)oc2cc1OS(=O)(=O)c1ccccc1 [Compound 7a]	221 µM	57.6 µg/mL (≈ 109 µM)	33.6 µg/mL (≈ 63.4 µM)	117 µg/mL (≈ 221 µM)	–	–	–	–	–	–	–
COc1cc2cc(C(=O)Nc3ccc(Br)cc3)c(=O)oc2cc1OS(=O)(=O)c1ccc(Cl)cc1 [Compound 7d]	174 µM	54.2 µg/mL (≈ 96 µM)	39.4 µg/mL (≈ 69.8 µM)	89 µg/mL (≈ 158 µM)	–	–	–	–	–	–	–
CCn1nc(C)cc1/C(OC(=O)C(C)(C)C)=C(/C#N)c1ccc(C(C)(C)C)cc1 [Cyetpyrafen, reference compound]	–	–	–	–	–	–	–	14.06 ± 10.20 µg/mL	11.7 µg/mL	6.13 µg/mL	15.0 µg/mL (≈ 38.1 µM)
